This passage reports inhibition results from patent US20080312255A1 (ASTRAZENECA AB, priority 2007, published 2008).

The experiment deals with S. aureus GyrB ATPase (Staphylococcus aureus, UniProt P0A0K8). As to the kind of experiment: S. aureus GyrB ATPase inhibition (ammonium molybdate/malachite green phosphate detection). Particulars: compound concentration of 1 μM. The experiment is classed as biochemical. As to the method: S. aureus GyrB ATPase Inhibition Activity: Compounds may be tested for inhibition of S. aureus GyrB ATPase activity using an ammonium molybdate/malachite green-based phosphate detection assay (Lanzetta, P. A., L. J. Alvarez, P. S. Reinach, and O. A. Candia, 1979, 100: 95-97). Assays can be performed in multiwell plates in 30 μl reactions containing: 50 mM Hepes buffer pH 7.5, 75 mM ammonium acetate, 8.0 mM magnesium chloride, 0.5 mM ethylenediaminetetraacetic acid, 5% glycerol, 1.0 mM 1,4-Dithio-DL-threitol, 200 nM bovine serum albumin, 1.0 μg/ml sheared salmon sperm DNA, 250 pM E. coli GyrA, 250 pM S. aureus GyrB, 250 μM ATP, and compound in dimethylsulfoxide. Reactions can be quenched with […] of ammonium molybdate/malachite green detection reagent containing 1.2 mM malachite green hydrochloride, 8.5 mM ammonium molybdate tetrahydrate, and 1 M hydrochloric acid. Plates can be read in an absorbance plate reader at 650 nm and percent inhibition values can be calculated using dimethylsulfoxide (2%)-containing reactions as 0% inhibition and EDTA-containing ([…]) reactions as 100% inhibition controls. An IC50 measurement of compound potency for each compound can be determined from reactions performed in the presence of 10 different compound concentrations.
Sequence of S. aureus GyrB ATPase (P0AES4 whole entry): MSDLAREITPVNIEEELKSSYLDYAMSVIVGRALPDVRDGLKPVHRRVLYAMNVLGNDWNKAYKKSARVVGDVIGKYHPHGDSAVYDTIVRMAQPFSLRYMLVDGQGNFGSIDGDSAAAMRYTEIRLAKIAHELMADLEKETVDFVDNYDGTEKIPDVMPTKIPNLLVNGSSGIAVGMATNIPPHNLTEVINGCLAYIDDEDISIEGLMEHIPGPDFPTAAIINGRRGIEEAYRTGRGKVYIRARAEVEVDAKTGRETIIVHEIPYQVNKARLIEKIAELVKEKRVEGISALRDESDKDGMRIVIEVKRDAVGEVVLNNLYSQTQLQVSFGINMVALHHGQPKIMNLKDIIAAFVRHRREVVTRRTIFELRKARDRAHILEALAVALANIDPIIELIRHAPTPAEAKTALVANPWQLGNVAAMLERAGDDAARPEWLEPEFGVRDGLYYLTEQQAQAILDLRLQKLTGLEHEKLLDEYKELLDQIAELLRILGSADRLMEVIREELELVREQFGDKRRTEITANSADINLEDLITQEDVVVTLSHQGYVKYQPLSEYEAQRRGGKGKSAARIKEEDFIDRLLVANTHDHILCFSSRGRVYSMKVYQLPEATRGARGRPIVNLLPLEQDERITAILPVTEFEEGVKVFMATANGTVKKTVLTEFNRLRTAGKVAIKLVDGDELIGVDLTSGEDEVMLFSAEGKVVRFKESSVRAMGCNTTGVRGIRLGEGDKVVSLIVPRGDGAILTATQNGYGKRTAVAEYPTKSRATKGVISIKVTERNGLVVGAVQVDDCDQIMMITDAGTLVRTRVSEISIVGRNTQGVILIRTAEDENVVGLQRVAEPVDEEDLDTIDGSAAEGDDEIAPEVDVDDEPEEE
Sequence of S. aureus GyrB ATPase (P0A0K8 whole entry): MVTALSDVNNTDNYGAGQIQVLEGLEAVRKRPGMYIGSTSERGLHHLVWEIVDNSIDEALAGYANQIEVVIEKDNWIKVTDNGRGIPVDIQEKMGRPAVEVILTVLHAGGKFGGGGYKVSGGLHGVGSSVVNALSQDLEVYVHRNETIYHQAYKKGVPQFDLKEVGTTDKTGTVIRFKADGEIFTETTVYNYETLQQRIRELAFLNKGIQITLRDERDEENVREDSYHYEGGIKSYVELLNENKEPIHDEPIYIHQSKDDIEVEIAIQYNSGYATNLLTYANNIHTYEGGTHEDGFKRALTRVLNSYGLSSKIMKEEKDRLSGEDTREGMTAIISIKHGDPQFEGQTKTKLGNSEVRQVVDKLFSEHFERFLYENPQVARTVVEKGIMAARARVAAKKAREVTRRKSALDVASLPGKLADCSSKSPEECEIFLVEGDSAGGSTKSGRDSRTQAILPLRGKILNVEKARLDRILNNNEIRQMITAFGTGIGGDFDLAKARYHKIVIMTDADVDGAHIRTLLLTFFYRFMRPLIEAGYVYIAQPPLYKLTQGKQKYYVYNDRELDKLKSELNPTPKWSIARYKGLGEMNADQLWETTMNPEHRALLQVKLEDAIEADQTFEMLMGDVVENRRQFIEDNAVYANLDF
Compounds of the invention were tested in an assay substantially similar to the assay described above for measuring the inhibition of S. aureus GyrB ATPase. Percent inhibition of S. aureus GyrB ATPase at a compound concentration of 1 μM (unless otherwise noted) is disclosed in the following table: […]
Take `CO[C@H]1CN(c2nc(-c3ncccn3)c(C(=O)O)s2)CC[C@H]1NC(=O)c1[nH]c(C)c(Cl)c1C#N` [Example 122, 2-((3S,4R)-4-(4-chloro-3-cyano-5-methyl-1H-pyrrole-2-carboxamido)-3-methoxypiperidin-1-yl)-4-(pyrimidin-2-yl)thiazole-5-carboxylic acid]: the inhibition at 1 µM came out at 103%.

On to `Cc1[nH]c(C(=O)N[C@@H]2CCN(c3nc(-c4ncnn4C)c(C(=O)O)s3)C[C@@H]2OCc2ccccc2)c(C#N)c1Cl` [Example 151, 2-[(3S,4R)-3-(benzyloxy)-4-{[(4-chloro-3-cyano-5-methyl-1H-pyrrol-2-yl)carbonyl]amino}piperidin-1-yl]-4-(1-methyl-1H-1,2,4-triazol-5-yl)-1,3-thiazole-5-carboxylic acid], for which the inhibition at 1 µM turned out to be 115%.

With `CO[C@H]1CN(c2nc(-c3ncnn3C)c(C(=O)O)s2)CC[C@H]1NC(=O)c1[nH]c(C)c(C#N)c1Cl` [Example 29, 2-((3S,4R)-4-{[(3-Chloro-4-cyano-5-methyl-1H-pyrrol-2-yl)carbonyl]amino}-3-methoxypiperidin-1-yl)-4-(1-methyl-1H-1,2,4-triazol-5-yl)-1,3-thiazole-5-carboxylic acid], the inhibition at 1 µM was 101%.

As for `Cc1[nH]c(C(=O)N[C@@H]2CCN(c3nc(-c4csc(N(C)C)n4)c(C(=O)O)s3)C[C@@H]2F)c(Cl)c1Cl` [Example 38, 2-((3S,4R)-4-{[(3,4-Dichloro-5-methyl-1H-pyrrol-2-yl)carbonyl]amino}-3-fluoropiperidin-1-yl)-2′-(dimethylamino)-4,4′-bi-1,3-thiazole-5-carboxylic acid], the inhibition at 1 µM is 97.3%.

Regarding `COC(=O)c1sc(N2CC[C@@H](NC(=O)c3[nH]c(C)c(Cl)c3C#N)[C@@H](OC)C2)nc1-c1cn(C)nn1` [Example 103, methyl 2-((3S,4R)-4-(4-chloro-3-cyano-5-methyl-1H-pyrrole-2-carboxamido)-3-methoxypiperidin-1-yl)-4-(1-methyl-1H-1,2,3-triazol-4-yl)thiazole-5-carboxylate], the inhibition at 1 µM came out at 85.7%.

On to `COC(=O)c1sc(N2CC[C@@H](NC(=O)c3[nH]c(C)c(Cl)c3Cl)[C@@H](OC)C2)nc1-c1csc(N(C)C)n1` [Example 73], for which the inhibition at 1 µM was determined as 99.9%.

Consider `COC(=O)c1sc(N2CC[C@@H](NC(=O)c3[nH]c(C)c(Cl)c3Cl)[C@@H](F)C2)nc1-c1csc(N(C)C)n1` [Example 76], for which the inhibition at 1 µM was found to be 99.2%.

Take `CCOC(=O)c1sc(N2CC[C@@H](NC(=O)c3[nH]c(C)c(Cl)c3Cl)[C@@H](F)C2)nc1-c1cnccn1` [Example 55]: the inhibition at 1 µM was 97.9%.

As for `Cc1[nH]c(C(=O)N[C@@H]2CCN(c3nc(-c4nc5ccccc5s4)c(C(=O)O)s3)C[C@@H]2F)c(Cl)c1Cl` [Example 15, 4-(1,3-Benzothiazol-2-yl)-2-((3S,4R)-4-{[(3,4-dichloro-5-methyl-1H-pyrrol-2-yl)carbonyl]amino}-3-fluoropiperidin-1-yl)-1,3-thiazole-5-carboxylic acid], the inhibition at 1 µM worked out at 101%.

Regarding `CCOC(=O)c1sc(N2CC[C@@H](NC(=O)c3[nH]c(C)c(Cl)c3Cl)[C@@H](OC)C2)nc1-c1ncccn1` [Example 43, Ethyl 2-((3S,4R)-4-{[(3,4-dichloro-5-methyl-1H-pyrrol-2-yl)carbonyl]amino}-3-methoxypiperidin-1-yl)-4-pyrimidin-2-yl-1,3-thiazole-5-carboxylate], the inhibition at 1 µM is 102%.

On to `CO[C@H]1CN(c2nc(-c3nnc(C)o3)c(C(=O)O)s2)CC[C@H]1NC(=O)c1[nH]c(C)c(Cl)c1Cl` [Example 90, 2-((3S,4R)-4-{[(3,4-Dichloro-5-methyl-1H-pyrrol-2-yl)carbonyl]amino}-3-methoxypiperidin-1-yl)-4-(5-methyl-1,3,4-oxadiazol-2-yl)-1,3-thiazole-5-carboxylic acid], for which the inhibition at 1 µM is 101%.

For the compound `COCn1ccnc1-c1nc(N2CC[C@@H](NC(=O)c3[nH]c(C)c(Cl)c3Cl)[C@@H](F)C2)sc1C(=O)O` [Example 19, 2-((3S,4R)-4-{[(3,4-Dichloro-5-methyl-1H-pyrrol-2-yl)carbonyl]amino}-3-fluoropiperidin-1-yl)-4-[1-(methoxymethyl)-1H-imidazol-2-yl]-1,3-thiazole-5-carboxylic acid], the inhibition at 1 µM came out at 102%.

Turning to `CCOC(=O)c1sc(N2CC[C@@H](NC(=O)c3[nH]c(C)c(Cl)c3Cl)[C@@H](OC)C2)nc1-c1ccncn1` [Example 81], the inhibition at 1 µM came to 100%.

For `COC(=O)c1sc(N2CC[C@@H](NC(=O)c3[nH]c(C)c(Cl)c3Cl)[C@@H](OC)C2)nc1-c1ncc(C)nc1C` [Example 93, methyl 2-((3S,4R)-4-(3,4-dichloro-5-methyl-1H-pyrrole-2-carboxamido)-3-methoxypiperidin-1-yl)-4-(3,5-dimethylpyrazin-2-yl)thiazole-5-carboxylate], the inhibition at 1 µM stood at 99.3%.

`Cc1[nH]c(C(=O)N[C@@H]2CCN(c3nc(-c4nccs4)c(C(=O)O)s3)C[C@@H]2F)c(Cl)c1Cl` [Example 6, 2′-((3S,4R)-4-{[(3,4-Dichloro-5-methyl-1H-pyrrol-2-yl)carbonyl]amino}-3-fluoropiperidin-1-yl)-2,4′-bi-1,3-thiazole-5′-carboxylic acid]: the inhibition at 1 µM was 99.9%.

For `CO[C@H]1CN(c2nc(-c3nccn3COCC[Si](C)(C)C)c(C(=O)O)s2)CC[C@H]1NC(=O)c1[nH]c(C)c(Cl)c1Cl` [Example 16, 2-((3S,4R)-4-{[(3,4-Dichloro-5-methyl-1H-pyrrol-2-yl)carbonyl]amino}-3-methoxypiperidin-1-yl)-4-(1-{[2-(trimethylsilyl)ethoxy]methyl}-1H-imidazol-2-yl)-1,3-thiazole-5-carboxylic acid], the inhibition at 1 µM came to 100%.

Take `COC(=O)c1sc(N2CC[C@@H](NC(=O)c3[nH]c(C)c(Cl)c3Cl)[C@@H](OC)C2)nc1-c1nccs1` [Example 44]: the inhibition at 1 µM was determined as 99.6%.

On to `CNc1nc(-c2nc(N3CC[C@@H](NC(=O)c4[nH]c(C)c(Cl)c4Cl)[C@@H](F)C3)sc2C(=O)O)cs1` [Example 37, 2-((3S,4R)-4-{[(3,4-Dichloro-5-methyl-1H-pyrrol-2-yl)carbonyl]amino}-3-fluoropiperidin-1-yl)-2′-(methylamino)-4,4′-bi-1,3-thiazole-5-carboxylic acid], for which the inhibition at 1 µM was determined as 101%.

Turning to `COC(=O)c1sc(N2CC[C@@H](NC(=O)c3[nH]c(C)c(Cl)c3Cl)[C@@H](OC)C2)nc1-c1cn(C)nn1` [Example 92, methyl 2-((3S,4R)-4-(3,4-dichloro-5-methyl-1H-pyrrole-2-carboxamido)-3-methoxypiperidin-1-yl)-4-(1-methyl-1H-1,2,3-triazol-4-yl)thiazole-5-carboxylate], the inhibition at 1 µM is 100%.

Consider `Cc1[nH]c(C(=O)N[C@@H]2CCN(c3nc(-c4ncccc4F)c(C(=O)O)s3)C[C@@H]2OCc2ccccc2)c(C#N)c1Cl` [Example 154, 2-[(3S,4R)-3-(benzyloxy)-4-{[(4-chloro-3-cyano-5-methyl-1H-pyrrol-2-yl)carbonyl]amino}piperidin-1-yl]-4-(3-fluoropyridin-2-yl)-1,3-thiazole-5-carboxylic acid], for which the inhibition at 1 µM worked out at 112%.

In the case of `COC(=O)c1sc(N2CC[C@@H](NC(=O)c3[nH]c(C)c(Cl)c3Cl)[C@@H](F)C2)nc1-c1ccno1` [Example 61], the inhibition at 1 µM came out at 94.7%.

Consider `Cc1[nH]c(C(=O)N[C@@H]2CCN(c3nc(-c4ncnn4C)c(C(=O)O)s3)C[C@@H]2F)c(Cl)c1Cl` [Example 28, 2-((3S,4R)-4-{[(3,4-Dichloro-5-methyl-1H-pyrrol-2-yl)carbonyl]amino}-3-fluoropiperidin-1-yl)-4-(1-methyl-1H-1,2,4-triazol-5-yl)-1,3-thiazole-5-carboxylic acid], for which the inhibition at 1 µM was determined as 87.1%.

Turning to `COCn1ccnc1-c1nc(N2CC[C@@H](NC(=O)c3[nH]c(C)c(Cl)c3Cl)[C@@H](F)C2)sc1C(=O)OC` [Example 59], the inhibition at 1 µM was 100%.

Take `COC(=O)c1sc(N2CC[C@@H](NC(=O)c3[nH]c(C)c(Cl)c3Cl)[C@@H](OC)C2)nc1-c1nccc(OC)n1` [Example 82]: the inhibition at 1 µM turned out to be 103%.

For `COc1cccc(-c2nc(N3CC[C@@H](NC(=O)c4[nH]c(C)c(Cl)c4Cl)[C@@H](OC)C3)sc2C(=O)O)n1` [Example 111, 2-((3S,4R)-4-(3,4-dichloro-5-methyl-1H-pyrrole-2-carboxamido)-3-methoxypiperidin-1-yl)-4-(6-methoxypyridin-2-yl)thiazole-5-carboxylic acid], the inhibition at 1 µM was 105%.

Take `COCn1ccnc1-c1nc(N2CC[C@@H](NC(=O)c3[nH]c(C)c(Cl)c3Cl)[C@@H](OC)C2)sc1C(=O)OC` [Example 58, methyl 2-((3S,4R)-4-{[(3,4-dichloro-5-methyl-1H-pyrrol-2-yl)carbonyl]amino}-3-methoxypiperidin-1-yl)-4-[1-(methoxymethyl)-1H-imidazol-2-yl]-1,3-thiazole-5-carboxylate]: the inhibition at 1 µM was determined as 99.5%.

As to `CCOC(=O)c1sc(N2CC[C@@H](NC(=O)c3[nH]c(C)c(Cl)c3Cl)[C@@H](OC)C2)nc1-c1cn(C)cn1` [Example 77], the inhibition at 1 µM came to 100%.

By inhibition is commonly meant the drop in the measured response relative to a control, in per cent.
